In PMC11070508, “Design, synthesis, molecular docking, and molecular dynamic studies of novel quinazoline derivatives as phosphodiesterase 7 inhibitors” (Frontiers in Pharmacology, 2024):
pIC50: −log10 of the molar value. Entries after “also recorded” stand apart in the source; their conditions may differ. Read-outs that look alike come from different tables or passages of the source.

Columns and labels:
[1] = target: T1, PDE7A (Homo sapiens, UniProt Q13946); assay: In vitro PDE7A inhibitory activity assay (fluorescence polarization PDE7A Assay Kit, BPS Bioscience); type: biochemical; details: for IC50: fluorescence polarization kit
T1 construct: purchased BPS Bioscience 60373
T1 sequence (Q13946 whole entry): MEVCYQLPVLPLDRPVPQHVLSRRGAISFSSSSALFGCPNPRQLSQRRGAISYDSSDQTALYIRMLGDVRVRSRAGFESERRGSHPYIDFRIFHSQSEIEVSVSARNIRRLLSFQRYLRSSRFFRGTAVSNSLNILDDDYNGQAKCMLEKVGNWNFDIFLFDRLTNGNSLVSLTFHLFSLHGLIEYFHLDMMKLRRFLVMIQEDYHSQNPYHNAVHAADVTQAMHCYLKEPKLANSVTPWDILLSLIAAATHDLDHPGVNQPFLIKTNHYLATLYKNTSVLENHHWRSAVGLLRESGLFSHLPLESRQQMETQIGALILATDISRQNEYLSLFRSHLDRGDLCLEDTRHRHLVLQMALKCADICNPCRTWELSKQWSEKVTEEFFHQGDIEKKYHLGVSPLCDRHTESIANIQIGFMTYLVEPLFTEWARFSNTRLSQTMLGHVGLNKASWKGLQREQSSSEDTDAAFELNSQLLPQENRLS
Method: The inhibitory activity of the compounds was determined as half maximal inhibitory concentration IC50 in μM ([Malik et al., 2008]; [Pekkinen et al., 2008]).
All the newly synthesized compounds 4a-h and 5a-h were evaluated for in vitro PDE7A inhibitory activity using a fluorescence polarization PDE7A Assay Kit (Catalog no. 60373; BPS Bioscience) ([Malik et al., 2008]; [Pekkinen et al., 2008]). The assay is based on the binding of fluorescent nucleotide, a monophosphate generated by PDE7A to the binding agent. PDE7A catalyzes the hydrolysis of the phosphodiester bond in dye-labeled cyclic adenosine monophosphate (cAMP). Nanoparticle beads selectively bind the phosphate group in the nucleotide product. This increases the size of the nucleotide relative to unreacted cAMP. Since the degree of polarization of a fluorophore is inversely related to its molecular rotation, dyes attached to the slowly rotating nucleotide-bead complexes will not have time to reorient and therefore will emit highly polarized light. Conversely, dyes attached to the rapidly rotating cyclic monophosphates will obtain random orientations and emit light with low polarization.
The PDE7A inhibitor screening assay kit comes in a convenient 384-well format, including purified PDE7A enzyme, fluorescently labeled PDE7A substrate (cAMP), binding agent, and PDE assay buffer for 384 enzyme reactions. The key to the PDE7A Assay Kit is the specific binding agent. Using this kit, only two simple steps on a microtiter plate are required for PDE7A reactions. First, the fluorescently labeled cAMP is incubated with a sample containing PDE7A for 1 h. Second, a binding agent is added to the reaction mix to produce a change in fluorescent polarization that can then be measured using a fluorescence reader. The microtiter plate reader is capable of excitation at wavelengths ranging from 485 ± 15 nm and detection of emitted light ranging from 528 ± 10 nm. […] The inhibitory activity of the tested compounds was determined as half maximal inhibitory concentration IC50 in μM compared to the two reference standards.
This in vitro testing assay was carried out at the confirmatory diagnostic unit, Vacsera, Egypt, and the results are presented in Table 1 and represented in Figure 2. […] Halogen atoms are lipophilic substituents commonly used in the design of novel biologically active molecules.

[2] = test system: PDE7; details: cited from earlier work

SMILES | melting point | PDE7A inhibitory activity (result in words) [1] | IC50 [1] | pIC50 ([2]; ref Sánchez et al., 2013) | pIC50 ([2]; ref Elfeky et al., 2020)
Clc1ccc2nc(Cl)nc(NN=Cc3cccnc3)c2c1 [Compound 4f, 2,6-Dichloro-4-[2-(3-pyridylmethylene)hydrazino]quinazoline] | 198 to 200 °C | high PDE7 inhibitory potencies | 0.343 µM |  | 
OCc1ccc(C=NNc2nc(Cl)nc3ccccc23)o1 [Compound 4a, 2-Chloro-4-[2-(5-hydroxymethyl-2-furylmethylene)hydrazino]quinazoline] | > 280 °C | among the least effective compounds | 0.653 µM |  | 
CC(C)c1nc(SCc2ccc(-c3ccccc3-c3nnn[nH]3)cc2)c2ccccc2n1 [C] |  |  |  | 6.11 | 
Cc1ccc([N+](=O)[O-])cc1S(=O)(=O)N(C)C [BRL50481, reference compound] |  |  | 0.034 µM |  | 
Clc1nc(NN=Cc2ccnc3ccccc23)c2ccccc2n1 [Compound 4d, 2-Chloro-4-[2-(4-quinolinylmethylene)hydrazino]quinazoline] | 205 to 207 °C |  | 0.249 µM |  | 
Clc1nc2ccccc2c2nnc(-c3c[nH]c4ccc(Br)cc34)n12 [Compound 5c, 3-(5-Bromo-3-indolyl)-5-chloro-1,2,4-triazolo[4,3-c]quinazoline] | 200 to 202 °C | good potency; also recorded: good activity | 0.18 µM |  | 
Clc1nc(NN=Cc2c[nH]c3ccc(Br)cc23)c2ccccc2n1 [Compound 4c, 4-[2-(5-bromo-1H-3-indolylmethylene)hydrazino]-2-chloroquinazoline] | 238 to 240 °C |  | 0.478 µM |  | 
OCc1ccc(C=NNc2nc(Cl)nc3ccc(Cl)cc23)o1 [Compound 4e, 2,6-Dichloro-4-[2-(5-hydroxymethyl-2-furylmethylene)hydrazino]quinazoline] | < 280 °C | among the least effective compounds | 1.97 µM |  | 
Cn1c(-c2ccoc2)nc(=O)c2ccccc21 [B] |  |  |  |  | 7.05
Clc1ccc2nc(Cl)n3c(-c4cccnc4)nnc3c2c1 [Compound 5f, 5,9-Dichloro-3-(3-pyridyl)-1,2,4-triazolo[4,3-c]quinazoline] | 219 to 221 °C | good potency; also recorded: high PDE7 inhibitory potencies; also recorded: highest selective PDE7A inhibitors | 0.142 µM |  | 
CC(C)c1nc(SCc2ccc(-c3ccc(C(=O)O)cc3)cc2)c2ccccc2n1 [D] |  |  |  | 6.03 | 
O=c1[nH]c(=S)[nH]c2cc(F)c(F)cc12 [A] |  |  |  |  | 7.15
Clc1nc(NN=Cc2cccnc2)c2ccccc2n1 [Compound 4b, 2-Chloro-4-[2-(3-pyridylmethylene)hydrazino]quinazoline] | < 280 °C | good potency; also recorded: high PDE7 inhibitory potencies; also recorded: highest selective PDE7A inhibitors | 0.114 µM |  | 
Clc1ccc2nc(Cl)nc(NN=Cc3c[nH]c4ccc(Br)cc34)c2c1 [Compound 4g, 4-[2-(5-bromo-1H-3-indolylmethylene)hydrazino]-2,6-dichloroquinazoline] | < 280 °C | good potency; also recorded: good activity | 0.15 µM |  | 

The next lines start with results.

melting point | PDE7A inhibitory activity (result in words) [1] | IC50 [1] | SMILES | pIC50 ([2]; ref Sánchez et al., 2013) | pIC50 ([2]; ref Elfeky et al., 2020)
220 to 222 °C | very low PDE7 inhibitory effect | 0.894 µM | Clc1nc2ccccc2c2nnc(-c3ccnc4ccccc34)n12 [Compound 5d, 5-Chloro-3-(4-quinolinyl)-1,2,4-triazolo[4,3-c]quinazoline] |  | 
< 280 °C | very low PDE7 inhibitory effect | 1.8 µM | Clc1ccc2nc(Cl)n3c(-c4ccnc5ccccc45)nnc3c2c1 [Compound 5h, 5,9-Dichloro-3-(4-quinolinyl)-1,2,4-triazolo[4,3-c]quinazoline] |  | 
> 280 °C |  | 0.251 µM | OCc1ccc(-c2nnc3c4ccccc4nc(Cl)n23)o1 [Compound 5a, 5-Chloro-3-(5-hydroxymethyl-2-furyl)-1,2,4-triazolo[4,3-c]quinazoline] |  | 
> 280 °C | high PDE7 inhibitory potencies | 0.32 µM | Clc1nc2ccccc2c2nnc(-c3cccnc3)n12 [Compound 5b, 5-Chloro-3-(3-pyridyl)-1,2,4-triazolo[4,3-c]quinazoline] |  | 
< 280 °C | very low PDE7 inhibitory effect | 0.627 µM | Clc1ccc2nc(Cl)nc(NN=Cc3ccnc4ccccc34)c2c1 [Compound 4h, 2,6-Dichloro-4-[2-(4-quinolinylmethylene)hydrazino]quinazoline] |  | 
< 280 °C | among the least effective compounds | 1.34 µM | OCc1ccc(-c2nnc3c4cc(Cl)ccc4nc(Cl)n23)o1 [Compound 5e, 5,9-Dichloro-3-(5-hydroxymethyl-2-furyl)-1,2,4-triazolo[4,3-c]quinazoline] |  | 
> 280 °C | good activity | 0.407 µM | Clc1ccc2nc(Cl)n3c(-c4c[nH]c5ccc(Br)cc45)nnc3c2c1 [Compound 5g, 3-(5-Bromo-3-indolyl)-5,9-dichloro-1,2,4-triazolo[4,3-c]quinazoline] |  | 
